Calls of active or inactive are those of the source. The calls are words filed in the database; no cut-off is given here.
Assays:
J774.A1 [1] = assay: Antiinflammatory activity against mouse J774.A1 cells assessed as inhibition of LPS-induced IL-6 production pretreated with compound for 30 mins followed by LPS induction and measured after 24 hrs by ELISA analysis; format: functional; settings: for inhibition (INH): time 1470 min, 24.5 h; on INH: test concentration or dose not given here
J774.A1 [2] = assay: Antiinflammatory activity against mouse J774.A1 cells assessed as inhibition of LPS-induced TNF-alpha production pretreated with compound for 30 mins followed by LPS induction and measured after 24 hrs by ELISA analysis; format: functional; settings: for inhibition (INH): time 1470 min, 24.5 h; on INH: test concentration or dose not given here
J774.A1 [3] = assay: Antiinflammatory activity against mouse J774.A1 cells assessed as inhibition of LPS-induced IL-6 release preincubated with compound for 30 mins followed by LPS-induction and measured after 24 hrs by ELISA analysis; format: functional, cell-based
J774.A1 [4] = assay: Antiinflammatory activity against mouse J774.A1 cells assessed as inhibition of LPS-induced TNF-alpha release preincubated with compound for 30 mins followed by LPS-induction and measured after 24 hrs by ELISA analysis; format: functional, cell-based
J774.A1 [5] = assay: Antiinflammatory activity against LPS-induced mouse J774.A1 cells assessed as effect on IL-6 mRNA level preincubated with compound for 30 mins followed by LPS-induction and measured after 6 hrs by qPCR analysis; format: functional, cell-based; settings: time 390.0 min

SMILES | inhibition (INH) (J774.A1 [1]) [%] | inhibition (INH) (J774.A1 [2]) [%] | further results
CC(=O)Nc1ncc(CN2CCN(CC(=O)NCc3ccccn3)CC2)s1 | 19.68 | 36.32 | –
O=[N+]([O-])c1cccc(CN2CCN(c3ccc(S(=O)(=O)NCc4ccccn4)cc3[N+](=O)[O-])CC2)c1 | 71.33 | 43.51 | IC50 (J774.A1 [3]): 1.38 µM; IC50 (J774.A1 [4]): 3.99 µM; Activity (J774.A1 [5]): inactive
O=[N+]([O-])c1ccc(N2CCN(CCS(=O)(=O)NCc3ccccn3)CC2)cc1 | 60.1 | 51.16 | –
O=[N+]([O-])c1cc(S(=O)(=O)NCc2ccccn2)ccc1N1CCN(c2ncccn2)CC1 | 20.86 | 18.24 | –
O=C(CN1CCN(c2ccc([N+](=O)[O-])cc2)CC1)NCc1ccccn1 | 49.31 | 57.51 | –
O=[N+]([O-])c1cccc(CN2CCN(CCS(=O)(=O)NCc3ccccn3)CC2)c1 | 41.05 | 38.96 | –
O=[N+]([O-])c1ccc(CN2CCN(CCS(=O)(=O)Nc3ccc4ncccc4c3)CC2)cc1 | 58.07 | 24.49 | –
O=C(CN1CCN(Cc2cccc([N+](=O)[O-])c2)CC1)NCc1ccccn1 | 21.88 | 39.82 | –
O=C(CN1CCN(c2ncccn2)CC1)NCc1ccccn1 | 40.7 | 38.32 | –
COc1ccc(CN2CCN(CC(=O)Nc3cccc4ccccc34)CC2)cc1 | – | – | inhibition (J774.A1 [1]; time 1470.0 min): inactive; inhibition (J774.A1 [2]; time 1470.0 min): inactive
COc1ccc(NC(=O)CN2CCN(Cc3ccc([N+](=O)[O-])cc3)CC2)cn1 | 35.43 | 37.85 | –
O=S(=O)(CCN1CCN(c2ncccn2)CC1)NCc1ccccn1 | 50.45 | 40.39 | –
O=[N+]([O-])c1ccc(N2CCN(CCS(=O)(=O)Nc3cccc4ccccc34)CC2)cc1 | 54.08 | 48.59 | –
CC(=O)Nc1ncc(CN2CCN(c3ccc(S(=O)(=O)NCc4ccccn4)cc3[N+](=O)[O-])CC2)s1 | 40.3 | 31.13 | –
O=S(=O)(CCN1CCN(Cc2ccccc2)CC1)Nc1cccc2ccccc12 | 36.45 | 38.58 | –
O=S(=O)(CCN1CCN(c2ncccn2)CC1)Nc1ccc2ncccc2c1 | 23.7 | 5.34 | –
COc1ccc(NC(=O)CN2CCN(Cc3cccc([N+](=O)[O-])c3)CC2)cn1 | 20.88 | 41.2 | –
O=C(CCN1CCN(Cc2ccc([N+](=O)[O-])cc2)CC1)NCc1ccccn1 | 36.81 | 25.79 | –
COc1ccc(CN2CCN(CCS(=O)(=O)Nc3cccc4ccccc34)CC2)cc1 | 46.54 | 38.07 | –
O=C(CN1CCN(c2ncccn2)CC1)Nc1cccc2ccccc12 | 9.078 | 18.5 | –
COc1ccc(NC(=O)CN2CCN(Cc3ccccc3)CC2)cn1 | 9.69 | 34.1 | –
COc1ccc(NC(=O)CN2CCN(c3ccc([N+](=O)[O-])cc3)CC2)cn1 | 26.57 | 35.31 | –
O=C(CCN1CCN(Cc2ccccc2)CC1)NCc1ccccn1 | 31 | 40.52 | –
O=C(CN1CCN(c2ccc([N+](=O)[O-])cc2)CC1)Nc1ccccn1 | 54.4 | 41.4 | –
COc1ccc(CN2CCN(CC(=O)Nc3ccc(OC)nc3)CC2)cc1 | 19.35 | 38.65 | –
COc1ccc(CN2CCN(c3ccc(S(=O)(=O)NCc4ccccn4)cc3[N+](=O)[O-])CC2)cc1 | 53.8 | 18.06 | –
O=S(=O)(CCN1CCN(Cc2ccccc2)CC1)NCc1ccccn1 | 54.87 | 43.92 | –
O=C(CN1CCN(Cc2ccc([N+](=O)[O-])cc2)CC1)NCc1ccccn1 | 36.43 | 42.8 | –
O=[N+]([O-])c1ccc(CN2CCN(CCS(=O)(=O)NCc3ccccn3)CC2)cc1 | 49.16 | 41.37 | –
